For the experiment, the system named is L1210 leukemia ip in BDF1 mice, survival T/C. Put plainly: NCI In Vivo Anticancer Drug Screen. Data for tumor model L1210 Leukemia (intraperitoneal) in B6D2F1 (BDF1) mice. The conditions noted are these: endpoint: mean survival time, higher = longer survival. The method in brief:
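Transplanted-tumor mice were given test agent; controls received vehicle only. Survival readings from the two groups were divided (treated over control).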

The mark [1] stands for this setting: dose: 100.0 mg/kg/injection, schedule: Q01DX009 (ip), vehicle: saline with Tween-80.
Where [2] appears, read: dose: 200.0 mg/kg/injection, schedule: Q01DX009 (ip), vehicle: saline with Tween-80.
The mark [3] stands for this setting: dose: 100.0 mg/kg/injection, schedule: Q01DX001 (ip), vehicle: carboxymethylcellulose (CMC).
[4] abbreviates: dose: 200.0 mg/kg/injection, schedule: Q01DX001 (ip), vehicle: carboxymethylcellulose (CMC).
[5] abbreviates: dose: 400.0 mg/kg/injection, schedule: Q01DX001 (ip), vehicle: carboxymethylcellulose (CMC).
Where [6] appears, read: dose: 100.0 mg/kg/injection, schedule: Q04DX003 (ip), vehicle: Klucel (hydroxypropylcellulose) (HPC).
The mark [7] stands for this setting: dose: 200.0 mg/kg/injection, schedule: Q04DX003 (ip), vehicle: Klucel (hydroxypropylcellulose) (HPC).
The mark [8] stands for this setting: dose: 400.0 mg/kg/injection, schedule: Q04DX003 (ip), vehicle: Klucel (hydroxypropylcellulose) (HPC).
Setting [9] is: dose: 100.0 mg/kg/injection, schedule: Q04DX002 (ip), vehicle: Klucel (hydroxypropylcellulose) (HPC).
Setting [10] is: dose: 200.0 mg/kg/injection, schedule: Q04DX002 (ip), vehicle: Klucel (hydroxypropylcellulose) (HPC).
Where [11] appears, read: dose: 400.0 mg/kg/injection, schedule: Q04DX002 (ip), vehicle: Klucel (hydroxypropylcellulose) (HPC).
The mark [12] stands for this setting: dose: 50.0 mg/kg/injection, schedule: Q01DX009 (ip), vehicle: saline.
Where [13] appears, read: dose: 100.0 mg/kg/injection, schedule: Q01DX009 (ip), vehicle: saline.
Setting [14] is: dose: 200.0 mg/kg/injection, schedule: Q01DX009 (ip), vehicle: saline.

SMILES strings stand for the structures. Toxic doses and inconclusive results are not listed.

For the compound `CC(=O)OCC(CCC(C)C)=C(C)C`, the T/C is, setting by setting: under setting [1], 98 % of control; (dose: 100.0 mg/kg/injection, schedule: Q04DX003 (ip), vehicle: saline with Tween-80) 97 % of control; under setting [2], 98 % of control; (dose: 200.0 mg/kg/injection, schedule: Q04DX003 (ip), vehicle: saline with Tween-80) 92 % of control; (dose: 400.0 mg/kg/injection, schedule: Q01DX009 (ip), vehicle: saline with Tween-80) 102 % of control; (dose: 400.0 mg/kg/injection, schedule: Q04DX003 (ip), vehicle: saline with Tween-80) 92 % of control.
For `CC#CC(O)(C(=O)OC)c1ccccc1` (stereo not given), the T/C reads like this: under setting [3], 94 % of control; under setting [4], 102 % of control; under setting [5], 108 % of control.
Take `Nc1nnnc2c1ncn2C1CCCC1`: where the note is “dose: 75.0 mg/kg/injection, schedule: Q01DX001 (ip), vehicle: other”, the T/C is 97 % of control.
With `CN(C)S(=O)(=O)c1ccc(N)cc1`, the T/C reads like this: (dose: 100.0 mg/kg/injection, schedule: Q01DX001 (ip), vehicle: other) 91 % of control; (dose: 200.0 mg/kg/injection, schedule: Q01DX001 (ip), vehicle: other) 101 % of control; (dose: 400.0 mg/kg/injection, schedule: Q01DX001 (ip), vehicle: other) 90 % of control.
Turning to `O=C(Nc1ccc(Br)cc1)Nc1cc([N+](=O)[O-])ccc1F`, the T/C reads like this: under setting [6], 89 % of control; under setting [7], 91 % of control; under setting [8], 102 % of control.
As to `CSc1ccc(OC(=O)Nc2ccccc2C)cc1`, the T/C reads like this: under setting [9], 95 % of control; under setting [10], 106 % of control; under setting [11], 114 % of control.
On to `CC1(C(=O)O)OCCO1`, for which the T/C reads like this: under setting [1], 94 % of control; under setting [2], 90 % of control.
With `C=C(C)C1(CCCCC)C(=O)NC(=S)NC1=O`, the T/C (dose: 75.0 mg/kg/injection, schedule: Q01DX001 (ip), vehicle: saline) is 100 % of control; the T/C (dose: 150.0 mg/kg/injection, schedule: Q01DX001 (ip), vehicle: saline) is 102 % of control; the T/C (dose: 300.0 mg/kg/injection, schedule: Q01DX001 (ip), vehicle: saline) was 95 % of control.
As for `COC(OC)c1cc(=O)[nH]cn1`, the T/C (dose: 100.0 mg/kg/injection, schedule: Q01DX009 (ip), vehicle: Klucel (hydroxypropylcellulose) (HPC)) is 94 % of control; the T/C (dose: 200.0 mg/kg/injection, schedule: Q01DX009 (ip), vehicle: Klucel (hydroxypropylcellulose) (HPC)) was 106 % of control; the T/C (dose: 400.0 mg/kg/injection, schedule: Q01DX009 (ip), vehicle: Klucel (hydroxypropylcellulose) (HPC)) is 107 % of control.
For the compound `O=[N+]([O-])c1ccc(/C=C/c2ccccn2)s1`, the T/C is 96 % of control under setting [6]; 101 % of control (dose: 100.0 mg/kg/injection, schedule: Q04DX003 (ip), vehicle: water); 112 % of control under setting [7]; 98 % of control (dose: 200.0 mg/kg/injection, schedule: Q04DX003 (ip), vehicle: water); 96 % of control under setting [8]; 97 % of control (dose: 400.0 mg/kg/injection, schedule: Q04DX003 (ip), vehicle: water).
Regarding `CCOC(=O)C1CCC(NC(=O)c2ccccc2)CC1` (stereo not given), the T/C by setting is: (dose: 100.0 mg/kg/injection, schedule: Q01DX001 (ip), vehicle: Klucel (hydroxypropylcellulose) (HPC)) 93 % of control; under setting [6], 100 % of control; (dose: 200.0 mg/kg/injection, schedule: Q01DX001 (ip), vehicle: Klucel (hydroxypropylcellulose) (HPC)) 93 % of control; under setting [7], 98 % of control; (dose: 400.0 mg/kg/injection, schedule: Q01DX001 (ip), vehicle: Klucel (hydroxypropylcellulose) (HPC)) 93 % of control; under setting [8], 94 % of control.
With `NCCO[Si](OCCN)(OCCN)OCCN`, the T/C reads like this: under setting [12], 93 % of control; under setting [13], 88 % of control.
Consider `O=C1OCC/C1=C\OCCc1ccccc1`, for which the T/C is 98 % of control under setting [9], 94 % of control under setting [10] and 94 % of control under setting [11].
Take `OCCCC1CCCCC1`: the T/C runs as follows: under setting [12], 97 % of control; under setting [13], 175 % of control; under setting [14], 103 % of control.
Take `O=C1c2cccc3cc([N+](=O)[O-])cc(c23)C(=O)N1Cc1ccco1`: the T/C reads like this: (dose: 100.0 mg/kg/injection, schedule: Q04DX002 (ip), vehicle: saline with Tween-80) 95 % of control; (dose: 200.0 mg/kg/injection, schedule: Q04DX002 (ip), vehicle: saline with Tween-80) 120 % of control; (dose: 400.0 mg/kg/injection, schedule: Q04DX002 (ip), vehicle: saline with Tween-80) 88 % of control.
With `CCOC(=O)C1(O)c2ccccc2NC(=S)N1CC(Br)CBr` (stereo not given), the T/C by setting is: under setting [13], 100 % of control; (dose: 100.0 mg/kg/injection, schedule: Q04DX002 (ip), vehicle: saline) 90 % of control; under setting [14], 93 % of control; (dose: 200.0 mg/kg/injection, schedule: Q04DX002 (ip), vehicle: saline) 97 % of control; (dose: 400.0 mg/kg/injection, schedule: Q01DX009 (ip), vehicle: saline) 102 % of control; (dose: 400.0 mg/kg/injection, schedule: Q04DX002 (ip), vehicle: saline) 103 % of control.
Take `Cc1c2c(cc3c1OCN(Cc1ccccc1)C3)CN(Cc1ccccc1)CO2`: the T/C is 105 % of control (dose: 50.0 mg/kg/injection, schedule: Q01DX001 (ip), vehicle: carboxymethylcellulose (CMC)); 94 % of control under setting [3]; 89 % of control under setting [4]; 91 % of control under setting [5].

The values above are taken from PubChem BioAssay AID248 (DTP/NCI, 2004).
